Experimental data: patent US7550624B2, “Pharmaceutically active salts and esters of 1-dimethylamino-3-(3-methoxyphenyl)-2-methylpentan-3-ol and 3- (3-dimethylamino-1-ethyl-1-hydroxy-2-methylpropyl)-phenol and methods of using same” (Gruenenthal GmbH, priority 2002, dated 2009)
Marks after values point to notes of the source that are not given here.

Tested on: female Sprague-Dawley rats
Test: Cystometry tests on conscious fresh rats
Assay type: in vivo, rat
Conditions: for effect on the bladder regulation (in words): iv, cystometric parameters
Experimental: Cystometry investigations were carried out on fresh female Sprague-Dawley rats according to the method of Ishizuka et. al. ((1997), Naunyn-Schmiedeberg's Arch. Pharmacol. 355: 787-793). Three days after implantation of bladder and venous catheters the animals were investigated in the conscious state while freely moving. The bladder catheter was connected to a pressure gauge and an injection pump. The animals were placed in metabolic cages that enable the volume of urine to be measured. Physiological saline solution was infused (10 ml/hour) into the emptied bladder and the bladder pressure and volume of urine were continuously recorded. After a stabilisation phase a 20-minute phase was recorded that was characterised by normal, reproducible micturition cycles. The following parameters among others were measured: • threshold pressure TP, bladder pressure immediately before micturition, • bladder capacity BC, residual volume after prior micturition plus volume of infused solution during the filling phase, • intercontraction interval ICI, i.e. the time interval between consecutive micturition.
An increase in the threshold pressure (TP) indicates an important therapeutic effect in one of the medical conditions covered by the invention. Also, the intercontraction interval (ICI) is an important parameter for measuring the physiological effectiveness of a substance in the treatment of urinary incontinence, as is the bladder capacity (BC). In this connection, on account of the widely differing causes of the symptoms of these disease patterns it is not necessary to influence positively all three parameters in order for a medicament to be effective.
After recording three reproducible micturition cycles to provide a baseline value, the test substances 1 (1.0 mg/kg), 2 (0.1; 0.3 and 0.5 mg/kg), 21 (0.5 mg/kg) and 7 (0.3 mg/kg) in a vehicle comprising 0.9% NaCl were applied intravenously and the effect on the cystometric parameters was recorded at 90 to 120 minutes. In the effect maximum the mean value of 3 micturition cycles was determined and recorded as a percentage change compared to the baseline value (Table 1).

[1] = 0.5 mg/kg iv, effect maximum, mean of 3 micturition cycles
[2] = 0.3 mg/kg iv, effect maximum, mean of 3 micturition cycles

Compound | BC Bladder Capacity (change compared to the baseline value) [1] | TP Threshold Pressure (change compared to the baseline value) [1] [%**] | effect on the bladder regulation (in words) | BC Bladder Capacity (change compared to the baseline value) (1.0 mg/kg iv, effect maximum, mean of 3 micturition cycles) | BC Bladder Capacity (change compared to the baseline value) (0.1 mg/kg iv, effect maximum, mean of 3 micturition cycles) | BC Bladder Capacity (change compared to the baseline value) [2] | ICI Inter-Contraction Interval (change compared to the baseline value) [2]
CC[C@@](O)(c1cccc(OC)c1)[C@@H](C)CN(C)C.Cl [Compound 21, (−)-(2S,3S)-1-dimethylamino-3-(3-methoxyphenyl)-2-methylpentan-3-ol, hydrochloride] | +3%** | −1.1 | does not exhibit such a marked effect | – | – | – | –
CC[C@](O)(c1cccc(OC)c1)[C@H](C)CN(C)C.Cl (racemic) [Compound 1, (2RS,3RS)-1-dimethylamino-3-(3-methoxyphenyl)-2-methylpentan-3-ol, hydrochloride] | – | – | – | +31%** | – | – | –
CC[C@](O)(c1cccc(OC)c1)[C@H](C)CN(C)C.Cl [Compound 2, (+)-(2R,3R)-1-dimethylamino-3-(3-methoxyphenyl)-2-methylpentan-3-ol, hydrochloride] | +20.6%** | – | very effective | – | +7.8%** | +33%** | –
CCC(O)(c1cccc(O)c1)C(C)CN(C)C.Cl (racemic) [Compound 7, (2RS,3RS)-3-(3-dimethylamino-1-ethyl-1-hydroxy-2-methylpropyl)-phenol, hydrochloride] | – | – | – | – | – | +32%** | +2%*
